Converted amounts (≈) assume the structure as drawn.

What all share (format): functional
The test system of assay [1] is Klebsiella pneumoniae. The assay is described as follows: Antimicrobial activity against blaKPC-positive Klebsiella pneumoniae S1 by broth microdilution method. Background: Broth dilution looks for growth in wells or tubes with falling amounts of substance.
Assay [2] deals with Klebsiella pneumoniae. The assay is described as follows: Antimicrobial activity against blaKPC-positive Klebsiella pneumoniae S2 by broth microdilution method.
Assay [3] has as its system Klebsiella pneumoniae. The assay is described as follows: Antimicrobial activity against blaKPC-positive Klebsiella pneumoniae S3 by broth microdilution method.
The subject of assay [4] is Klebsiella pneumoniae. The assay is described as follows: Antimicrobial activity against blaKPC-positive Klebsiella pneumoniae S4 by broth microdilution method.
For assay [5], the system named is Klebsiella pneumoniae. The assay is described as follows: Antimicrobial activity against blaKPC-positive Klebsiella pneumoniae S5 by broth microdilution method.
In assay [6] the test system is Klebsiella pneumoniae. The assay is described as follows: Antimicrobial activity against blaKPC-positive Klebsiella pneumoniae S6 by broth microdilution method.
The subject of assay [7] is Klebsiella pneumoniae. The assay is described as follows: Antimicrobial activity against blaKPC-positive Klebsiella pneumoniae S7 by broth microdilution method.
Assay [8] deals with Klebsiella pneumoniae. The assay is described as follows: Antimicrobial activity against blaKPC-positive Klebsiella pneumoniae S8 by broth microdilution method.
Assay [9] has as its system Klebsiella pneumoniae. The assay is described as follows: Antimicrobial activity against blaKPC-positive Klebsiella pneumoniae S9 by broth microdilution method.
The test system of assay [10] is Klebsiella pneumoniae. The assay is described as follows: Antimicrobial activity against blaKPC-positive Klebsiella pneumoniae S10 by broth microdilution method.
The subject of assay [11] is Klebsiella pneumoniae. The assay is described as follows: Antimicrobial activity against blaKPC-positive Klebsiella pneumoniae S11 by broth microdilution method.
The subject of assay [12] is Klebsiella pneumoniae. The assay is described as follows: Antimicrobial activity against blaKPC-positive Klebsiella pneumoniae S12 by broth microdilution method.
In a further assay the test system is Klebsiella oxytoca. The assay is described as follows: Antimicrobial activity against blaKPC-positive Klebsiella oxytoca S13 by broth microdilution method.
For assay [13], the system named is Klebsiella pneumoniae. The assay is described as follows: Antimicrobial activity against blaKPC-positive Klebsiella pneumoniae S14 by broth microdilution method.
Assay [14] concerns Klebsiella pneumoniae. The assay is described as follows: Antimicrobial activity against blaKPC-positive Klebsiella pneumoniae S15 by broth microdilution method.

By MIC is commonly meant the lowest concentration that inhibits growth of the organism. A low value points to greater potency. In the case of `CO/N=C(\C(=O)N[C@@H]1C(=O)N2C(C(=O)[O-])=C(C[N+]3(C)CCCC3)CS[C@H]12)c1csc(N)n1`, the MIC with Klebsiella pneumoniae [1] was 32 µg/mL (≈ 66.6 µM); against Klebsiella pneumoniae [2], more than 64 µg/mL; in the assay on Klebsiella pneumoniae [3] it was more than 64 µg/mL; in the assay with Klebsiella pneumoniae [4] it was 64 µg/mL (≈ 133 µM); against Klebsiella pneumoniae [5], more than 64 µg/mL; with Klebsiella pneumoniae [6], more than 64 µg/mL. The MIC was more than 64 µg/mL with Klebsiella pneumoniae [7]; 64 µg/mL (≈ 133 µM) with Klebsiella pneumoniae [8]; more than 64 µg/mL against Klebsiella pneumoniae [9]; more than 64 µg/mL against Klebsiella pneumoniae [10]; more than 64 µg/mL in the assay with Klebsiella pneumoniae [11]; more than 64 µg/mL against Klebsiella pneumoniae [12]. The MIC in the assay on Klebsiella oxytoca, against Klebsiella pneumoniae [13] and in the assay with Klebsiella pneumoniae [14] was more than 64 µg/mL in each case.

Take `NCC[C@H](O)C(=O)N[C@@H]1C[C@H](N)[C@@H](O[C@H]2O[C@H](CN)[C@@H](O)[C@H](O)[C@H]2O)[C@H](O)[C@H]1O[C@H]1O[C@H](CO)[C@@H](O)[C@H](N)[C@H]1O` [AMIKACIN]: the MIC in the assay with Klebsiella pneumoniae [1] came out at 16 µg/mL (≈ 27.3 µM); with Klebsiella pneumoniae [2], 32 µg/mL (≈ 54.6 µM); in the assay on Klebsiella pneumoniae [3], 32 µg/mL (≈ 54.6 µM); against Klebsiella pneumoniae [4] it was 1 µg/mL (≈ 1.71 µM); with Klebsiella pneumoniae [5] it was 64 µg/mL (≈ 109 µM); with Klebsiella pneumoniae [6], 32 µg/mL (≈ 54.6 µM). The MIC is 1 µg/mL (≈ 1.71 µM) in the assay on Klebsiella pneumoniae [7]; more than 64 µg/mL in the assay on Klebsiella pneumoniae [8]; 16 µg/mL (≈ 27.3 µM) with Klebsiella pneumoniae [9]; more than 64 µg/mL with Klebsiella pneumoniae [10]; 2 µg/mL (≈ 3.42 µM) against Klebsiella pneumoniae [11]; 16 µg/mL (≈ 27.3 µM) with Klebsiella pneumoniae [12]. Besides, the MIC in the assay on Klebsiella oxytoca is 4 µg/mL (≈ 6.83 µM); with Klebsiella pneumoniae [13], 32 µg/mL (≈ 54.6 µM); with Klebsiella pneumoniae [14], 32 µg/mL (≈ 54.6 µM).

Turning to `C[C@H]1[C@H](NC(=O)/C(=N\OC(C)(C)C(=O)O)c2csc(N)n2)C(=O)N1S(=O)(=O)O` [AZTREONAM], the minimal inhibitory concentration (MIC) in the assay with Klebsiella pneumoniae [1], with Klebsiella pneumoniae [2], in the assay with Klebsiella pneumoniae [3], in the assay with Klebsiella pneumoniae [4], in the assay with Klebsiella pneumoniae [5] and in the assay with Klebsiella pneumoniae [6] was more than 64 µg/mL each time. In addition, the minimum inhibitory concentration (MIC) in the assay with Klebsiella pneumoniae [7], in the assay on Klebsiella pneumoniae [8], with Klebsiella pneumoniae [9], in the assay on Klebsiella pneumoniae [10], in the assay on Klebsiella pneumoniae [11] and in the assay with Klebsiella pneumoniae [12] was more than 64 µg/mL in each case. Also, the MIC in the assay on Klebsiella oxytoca, with Klebsiella pneumoniae [13] and with Klebsiella pneumoniae [14] was more than 64 µg/mL throughout.

`CC(C)(O/N=C(\C(=O)N[C@@H]1C(=O)N2C(C(=O)[O-])=C(C[n+]3ccccc3)CS[C@H]12)c1csc(N)n1)C(=O)O` [CEFTAZIDIME]: the minimum inhibitory concentration (MIC) in the assay with Klebsiella pneumoniae [1] is more than 64 µg/mL; against Klebsiella pneumoniae [2] it was more than 64 µg/mL; in the assay on Klebsiella pneumoniae [3], 64 µg/mL (≈ 117 µM); against Klebsiella pneumoniae [4] it was 8 µg/mL (≈ 14.6 µM); in the assay on Klebsiella pneumoniae [5], more than 64 µg/mL; in the assay with Klebsiella pneumoniae [6], more than 64 µg/mL. The MIC is 32 µg/mL (≈ 58.5 µM) in the assay with Klebsiella pneumoniae [7]; more than 64 µg/mL against Klebsiella pneumoniae [8]; more than 64 µg/mL against Klebsiella pneumoniae [9]; more than 64 µg/mL in the assay with Klebsiella pneumoniae [10]; 16 µg/mL (≈ 29.3 µM) in the assay with Klebsiella pneumoniae [11]; more than 64 µg/mL against Klebsiella pneumoniae [12]. Moreover, the MIC in the assay on Klebsiella oxytoca, in the assay with Klebsiella pneumoniae [13] and against Klebsiella pneumoniae [14] was more than 64 µg/mL each time.

On to `O=C(O)c1cn(C2CC2)c2cc(N3CCNCC3)c(F)cc2c1=O` [CIPROFLOXACIN], for which the MIC is more than 64 µg/mL in the assay with Klebsiella pneumoniae [1]; more than 64 µg/mL against Klebsiella pneumoniae [2]; more than 64 µg/mL with Klebsiella pneumoniae [3]; 0.06 µg/mL (≈ 0.181 µM) in the assay with Klebsiella pneumoniae [4]; more than 64 µg/mL in the assay on Klebsiella pneumoniae [5]; more than 64 µg/mL against Klebsiella pneumoniae [6]. The MIC in the assay with Klebsiella pneumoniae [7] was 32 µg/mL (≈ 96.6 µM); with Klebsiella pneumoniae [8], more than 64 µg/mL; with Klebsiella pneumoniae [9], more than 64 µg/mL; in the assay on Klebsiella pneumoniae [10], more than 64 µg/mL; in the assay with Klebsiella pneumoniae [11] it was 1 µg/mL (≈ 3.02 µM); against Klebsiella pneumoniae [12], less than 0.06 µg/mL. The MIC was 0.06 µg/mL (≈ 0.181 µM) in the assay on Klebsiella oxytoca, 64 µg/mL (≈ 193 µM) in the assay on Klebsiella pneumoniae [13] and more than 64 µg/mL with Klebsiella pneumoniae [14].

Regarding `C[C@@H](O)[C@H]1C(=O)N2C(C(=O)O)=C(SCCNC=N)C[C@H]12` [IMIPENEM ANHYDROUS], the MIC was found to be 32 µg/mL (≈ 107 µM) against Klebsiella pneumoniae [1]; 32 µg/mL (≈ 107 µM) against Klebsiella pneumoniae [2]; 32 µg/mL (≈ 107 µM) against Klebsiella pneumoniae [3]; 8 µg/mL (≈ 26.7 µM) with Klebsiella pneumoniae [4]; 64 µg/mL (≈ 214 µM) against Klebsiella pneumoniae [5]; 32 µg/mL (≈ 107 µM) in the assay with Klebsiella pneumoniae [6]. Moreover, the MIC was 32 µg/mL (≈ 107 µM) against Klebsiella pneumoniae [7]; 64 µg/mL (≈ 214 µM) in the assay with Klebsiella pneumoniae [8]; more than 64 µg/mL in the assay with Klebsiella pneumoniae [9]; 64 µg/mL (≈ 214 µM) against Klebsiella pneumoniae [10]; 32 µg/mL (≈ 107 µM) in the assay on Klebsiella pneumoniae [11]; 32 µg/mL (≈ 107 µM) in the assay on Klebsiella pneumoniae [12]. Besides, the MIC with Klebsiella oxytoca is 32 µg/mL (≈ 107 µM); in the assay with Klebsiella pneumoniae [13] it was more than 64 µg/mL; against Klebsiella pneumoniae [14], 64 µg/mL (≈ 214 µM).

Take `C[C@@H](O)[C@H]1C(=O)N2C(C(=O)O)=C(S[C@@H]3CN[C@H](C(=O)N(C)C)C3)[C@H](C)[C@H]12` [MEROPENEM]: the MIC against Klebsiella pneumoniae [1] was more than 64 µg/mL; in the assay on Klebsiella pneumoniae [2] it was 64 µg/mL (≈ 167 µM); in the assay on Klebsiella pneumoniae [3], 64 µg/mL (≈ 167 µM); against Klebsiella pneumoniae [5], 64 µg/mL (≈ 167 µM); with Klebsiella pneumoniae [6], 64 µg/mL (≈ 167 µM); against Klebsiella pneumoniae [7], 32 µg/mL (≈ 83.4 µM). The MIC was 64 µg/mL (≈ 167 µM) in the assay with Klebsiella pneumoniae [8]; more than 64 µg/mL in the assay with Klebsiella pneumoniae [9]; 64 µg/mL (≈ 167 µM) against Klebsiella pneumoniae [10]; 32 µg/mL (≈ 83.4 µM) in the assay on Klebsiella pneumoniae [11]; 32 µg/mL (≈ 83.4 µM) against Klebsiella pneumoniae [12]; 32 µg/mL (≈ 83.4 µM) in the assay with Klebsiella oxytoca. In addition, the MIC against Klebsiella pneumoniae [13] and against Klebsiella pneumoniae [14] was 64 µg/mL (≈ 167 µM) in each case.

Take `CN(C)c1cc(NC(=O)CNC(C)(C)C)c(O)c2c1C[C@H]1C[C@H]3[C@H](N(C)C)C(O)=C(C(N)=O)C(=O)[C@@]3(O)C(O)=C1C2=O` [TIGECYCLINE]: the MIC amounted to 1 µg/mL (≈ 1.71 µM) against Klebsiella pneumoniae [1]; 1 µg/mL (≈ 1.71 µM) in the assay on Klebsiella pneumoniae [2]; 1 µg/mL (≈ 1.71 µM) with Klebsiella pneumoniae [3]; 0.5 µg/mL (≈ 0.854 µM) against Klebsiella pneumoniae [4]; 1 µg/mL (≈ 1.71 µM) against Klebsiella pneumoniae [5]; 4 µg/mL (≈ 6.83 µM) against Klebsiella pneumoniae [6]. Also, the MIC in the assay on Klebsiella pneumoniae [7] was found to be 0.5 µg/mL (≈ 0.854 µM); against Klebsiella pneumoniae [8], 2 µg/mL (≈ 3.41 µM); with Klebsiella pneumoniae [9], 2 µg/mL (≈ 3.41 µM); against Klebsiella pneumoniae [10], 1 µg/mL (≈ 1.71 µM); against Klebsiella pneumoniae [11], 0.25 µg/mL (≈ 0.427 µM); with Klebsiella pneumoniae [12] it was 0.25 µg/mL (≈ 0.427 µM). Moreover, the MIC against Klebsiella oxytoca stood at 0.25 µg/mL (≈ 0.427 µM); in the assay with Klebsiella pneumoniae [13], 0.25 µg/mL (≈ 0.427 µM); in the assay with Klebsiella pneumoniae [14], 1 µg/mL (≈ 1.71 µM).

Take GENTAMICIN: the minimum inhibitory concentration (MIC) with Klebsiella pneumoniae [2] was 2 µg/mL; against Klebsiella pneumoniae [3], 2 µg/mL; with Klebsiella pneumoniae [5] it was 1 µg/mL; in the assay with Klebsiella pneumoniae [6] it was 1 µg/mL; in the assay with Klebsiella pneumoniae [7] it was 8 µg/mL; against Klebsiella pneumoniae [8] it was 8 µg/mL. Moreover, the MIC in the assay on Klebsiella pneumoniae [9] was found to be 1 µg/mL; in the assay on Klebsiella pneumoniae [10], 8 µg/mL; in the assay with Klebsiella pneumoniae [12], 16 µg/mL; in the assay with Klebsiella oxytoca, 8 µg/mL; with Klebsiella pneumoniae [13] it was 32 µg/mL; in the assay with Klebsiella pneumoniae [14] it was 2 µg/mL.

On to POLYMYXIN B, for which the MIC came to 2 µg/mL in the assay on Klebsiella pneumoniae [1]; 8 µg/mL with Klebsiella pneumoniae [2]; 8 µg/mL in the assay on Klebsiella pneumoniae [3]; 8 µg/mL against Klebsiella pneumoniae [4]; 4 µg/mL with Klebsiella pneumoniae [5]; 16 µg/mL against Klebsiella pneumoniae [6]. For the same compound, the MIC in the assay with Klebsiella pneumoniae [7] came to 16 µg/mL; with Klebsiella pneumoniae [8], 8 µg/mL; in the assay with Klebsiella pneumoniae [9] it was 4 µg/mL; in the assay on Klebsiella pneumoniae [10], 4 µg/mL; with Klebsiella pneumoniae [11], 16 µg/mL; in the assay on Klebsiella pneumoniae [12], 2 µg/mL. Further, the MIC with Klebsiella oxytoca was determined as 4 µg/mL; with Klebsiella pneumoniae [13] it was 1 µg/mL; in the assay on Klebsiella pneumoniae [14], 4 µg/mL.

(Values after ChEMBL document CHEMBL1649191, “Genetic organization of transposase regions surrounding blaKPC carbapenemase genes on plasmids from Klebsiella strains isolated in a New York City hospital” (2009).)
